Test results from PubChem BioAssay (NCI).
Values joined by “and” are separate entries in the source; they are usually repeats but may differ in a detail not shown here. Identical values can stand only once.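 Exposure lasted 48 hours, with cells grown in 96-well plates and compounds tested at five concentrations. The concentration for 50% growth inhibition is given as GI50. TGI marks complete inhibition of growth.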

What was measured:
Test in all cases: inhibition of tumour cell growth, NCI panel, 48 h
RPMI-8226 leukemia = tested on: RPMI-8226 leukemia
UO-31 renal = tested on: UO-31 renal
MOLT-4 leukemia = tested on: MOLT-4 leukemia
LOX IMVI melanoma = tested on: LOX IMVI melanoma
SW-620 colon = tested on: SW-620 colon
HS 578T breast = tested on: HS 578T breast
ACHN renal = tested on: ACHN renal
DU-145 prostate = tested on: DU-145 prostate
CCRF-CEM leukemia = tested on: CCRF-CEM leukemia
HCC-2998 colon = tested on: HCC-2998 colon

| SMILES | GI50 (RPMI-8226 leukemia) | TGI (RPMI-8226 leukemia) | GI50 (UO-31 renal) | TGI (UO-31 renal) | GI50 (MOLT-4 leukemia) | TGI (MOLT-4 leukemia) | GI50 (LOX IMVI melanoma) | TGI (LOX IMVI melanoma) | GI50 (SW-620 colon) | TGI (SW-620 colon) | GI50 (HS 578T breast) | TGI (HS 578T breast) | GI50 (ACHN renal) | TGI (ACHN renal) | GI50 (DU-145 prostate) | TGI (DU-145 prostate) | TGI (CCRF-CEM leukemia) | GI50 (HCC-2998 colon) | TGI (HCC-2998 colon) | GI50 (CCRF-CEM leukemia) |
| --- | --- | --- | --- | --- | --- | --- | --- | --- | --- | --- | --- | --- | --- | --- | --- | --- | --- | --- | --- | --- |
| CCC(C)(C)C(=O)O[C@H]1C[C@@H](C)C=C2C=C[C@H](C)[C@H](CC[C@@H]3C[C@@H](O)CC(=O)O3)[C@H]21 | 3.79 µM | 28.5 µM and > 30 µM | 2.85 µM | 14.7 µM and 10.1 µM | 14.6 µM | 31.7 µM and > 30 µM | 0.39 µM | 6.43 µM | 3.58 µM | 16.6 µM and > 30 µM | 2.7 µM | 16.4 µM | 0.882 µM | 10.3 µM and 2.38 µM | 12.1 µM | 24.6 µM | 30.2 µM and > 30 µM | 7.89 µM | 22.1 µM and > 30 µM | – |
| O=[N+]([O-])c1ccc(Br)c([N+](=O)[O-])c1 | 2.36 µM | 5.51 µM | 0.266 µM | 0.779 µM | 2.52 µM | 6.71 µM | 1.67 µM | 3.38 µM | 1.83 µM | 4.13 µM | 1.98 µM | 4.97 µM | 1.8 µM | 3.48 µM | 1.72 µM | 3.12 µM | 6.83 µM | 4.73 µM | 16.7 µM | 1.79 µM |
| COc1cc(C(=O)c2ccc3c(c2)OCO3)cc(OC)c1OC | 2.64 µM | > 42 µM | 2.93 µM | 38.2 µM | 2.72 µM | > 75.1 µM | 6.69 µM | > 100 µM | 0.621 µM | > 100 µM | 2.54 µM | > 26.9 µM | 8.37 µM | > 100 µM | 3.51 µM | > 65.7 µM | > 75.3 µM | 9.73 µM | > 100 µM | 2.46 µM |
| COC(=O)NC1C(C)OC(OC2C/C=C(/C)C3C=CC4C(OC5CC(OC6CC(O)C(OC7CC(O)C(OC)C(C)O7)C(C)O6)C(O)C(C)O5)C(C)CC(C)C4C3(C)/C(O)=C3\C(=O)OC4(CC(C)C(CO)=CC4/C=C\2C)C3=O)CC1(C)[N+](=O)[O-] (centres undefined) | 15.7 µM | 50 µM and 26.9 µM | 14.4 µM | 50 µM and 34.3 µM | 18.2 µM | 50 µM and 20.2 µM | – | 28 µM | – | 19.7 µM and 35.2 µM | – | 40.4 µM | 14.8 µM | 35.5 µM and 30.6 µM | – | 27.5 µM | 36.8 µM and 23.6 µM | – | 31.6 µM | 9.71 µM |
| C1=Cc2ccccc2Nc2ccccc21 | > 100 µM | > 100 µM | > 100 µM | > 100 µM | > 100 µM | > 100 µM | > 100 µM | > 100 µM | > 100 µM | > 100 µM | > 100 µM | > 100 µM | > 100 µM | > 100 µM | > 100 µM | > 100 µM | > 100 µM | > 100 µM | > 100 µM | > 100 µM |
| CN(C)c1ccc(N2Cc3ccccc3OC3=C2C(=O)c2c(O)ccc(O)c2C3=O)cn1 | 0.235 µM | 0.797 µM | 0.135 µM | 0.351 µM | 0.112 µM | 0.843 µM | 0.16 µM | 0.48 µM | 0.178 µM | 0.586 µM | 0.444 µM | 26.1 µM | 0.158 µM | 0.698 µM | 0.223 µM | 0.51 µM | 0.815 µM | 1.18 µM | 2.58 µM | 0.102 µM |
| N#C/C(=C\c1ccc(-c2ccc(Cl)cc2)o1)C(=O)Nc1ncc(Cc2ccc(Cl)cc2)s1 | 4.45 µM | > 100 µM | 2.48 µM | 7.87 µM | 3.75 µM | > 100 µM | 2.62 µM | 7.55 µM | – | – | 1.59 µM | 7.8 µM | 1.59 µM | 3.43 µM | 2.53 µM | 13.5 µM | > 100 µM | 3.63 µM | > 100 µM | 2.21 µM |
| COc1ccc2nc(-c3cc(-c4cc(OC)c(OC)c(OC)c4)n[nH]3)[nH]c2c1 | 0.643 µM | 2.53 µM | 1.57 µM | 4.11 µM | 0.738 µM | 3.27 µM | – | – | 2.89 µM | 11.1 µM | 2.89 µM | 23.2 µM | 2.63 µM | 10.7 µM | 2.29 µM | 8.28 µM | 4.12 µM | 3.03 µM | 10.6 µM | 1.29 µM |
| Cn1ccnc1C(=O)/C=C/c1ccc(C(=O)Nc2ccc(Cl)cc2)cc1 | 0.431 µM | 1.35 µM | 0.905 µM | 4.34 µM | 0.81 µM | 2.43 µM | 0.686 µM | 1.56 µM | – | – | 0.919 µM | > 33.3 µM | 0.62 µM | 1.24 µM | 1.32 µM | > 33.3 µM | 2.71 µM | 0.655 µM | 1.43 µM | 0.783 µM |
| COc1ccc(-c2[nH]c3ccccc3c2C=C(C#N)C#N)cc1 | – | – | – | > 100 µM | 0.578 µM | 5.53 µM | 1.73 µM | > 100 µM | 0.435 µM | > 100 µM | 0.201 µM | – | 2.26 µM | > 100 µM | 0.484 µM | > 21.7 µM | 10.3 µM | 0.67 µM | 3.16 µM | 0.352 µM |
